This passage reports IC50 results from US20240409557A1, “5,6-FUSED AND 6,6-FUSED BICYCLIC ALCOHOLS AND ETHERS AND COMPOSITIONS FOR USE AS 15-PROSTAGLANDIN DEHYDROGENASE MODULATORS” (AMGEN INC., priority 2023, published 2024).

One assay concerns the target T1, 15-PGDH in A549 cells (Homo sapiens, UniProt P15428).
T1 construct: endogenous in cells; host or cells: A549
T1 sequence (P15428 1-266): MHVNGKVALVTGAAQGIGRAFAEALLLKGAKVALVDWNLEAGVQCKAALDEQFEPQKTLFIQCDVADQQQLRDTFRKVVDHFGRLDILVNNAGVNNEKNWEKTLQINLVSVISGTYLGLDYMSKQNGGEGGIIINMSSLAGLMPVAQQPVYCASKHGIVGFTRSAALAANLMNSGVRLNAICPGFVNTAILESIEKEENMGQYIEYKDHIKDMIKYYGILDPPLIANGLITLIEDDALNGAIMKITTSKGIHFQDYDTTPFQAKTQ
The experiment in a line: A549 cellular 15-PGDH assay (PGE2 accumulation, HTRF). It is filed as cell-based. Particulars: interleukin-stimulated, inhibitor 24 hrs, PGE2 by competitive HTRF, read-out: A549 Cell Assay IC50. A digest of the protocol:
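Supernatant PGE2 was quantified by competitive HTRF, in which sample PGE2 blocks FRET between a europium cryptate-labelled antibody and labelled PGE2. It came from A549 epithelial cells induced with IL-13. IC50s were calculated from the inversely proportional signal.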
Background: TR-FRET usually uses a lanthanide donor and a delayed reading to cut background.

Assay [1] has as its target T2, human recombinant 15-PGDH (Homo sapiens, UniProt P15428).
T2 sequence (P15428 1-266): T1 sequence (P15428 1-266)
The experiment in a line: Recombinant 15-PGDH enzymatic inhibition assay (PGDH-Lumi, NADH signal). It is filed as biochemical. Particulars: recombinant 15-PGDH; 15 min pre-incubation, 60 min reaction with PGE2 and NAD+, NADH signal. A digest of the protocol: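 Buffer 50 mM Tris pH 7.5 with 0.01% Tween-20 and […]; compound, 22 two-fold dilutions, pre-incubated with enzyme 15 min before substrate.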

As usually defined, the IC50 is the concentration needed to halve the response being measured. For `O[C@]1(c2cc3ccc(-c4cnc5[nH]nnc5c4)nc3s2)C[C@H](C(F)F)C1` [Compound C103C, cis-3-(difluoromethyl)-1-(6-(3H-[1,2,3]triazolo[4,5-b]pyridin-6-yl)thieno[2,3-b]pyridin-2-yl)cyclobutanol], the IC50 stood at 2.43 nM at 15-PGDH in A549 cells and 0.302 nM in assay [1].

For `Cc1c([C@H](O)C2CCOCC2)sc2nc(-c3cnc4nn(C)cc4c3)ccc12` (single isomer, unassigned) [Compound B90R], the IC50 came out at 0.857 nM at 15-PGDH in A549 cells and 0.952 nM in assay [1].

For the compound `Cn1cc2cc(-c3ccc4cc([C@H](O)C56CC(C5)C6)sc4n3)cnc2n1` (single isomer, unassigned) [Compound B87R], the IC50 on 15-PGDH in A549 cells was found to be 0.667 nM; in assay [1], 0.494 nM.

Turning to `Cn1cc2cc(-c3ccc4nc([C@]5(O)C[C@@](C)(C#N)C5)sc4n3)cnc2n1` (single isomer, unassigned) [Compound C91C, cis-3-hydroxy-1-methyl-3-(5-(2-methyl-2H-pyrazolo[3,4-b]pyridin-5-yl)[1,3]thiazolo[5,4-b]pyridin-2-yl)cyclobutanecarbonitrile], the IC50 is 2.22 nM at 15-PGDH in A549 cells and 0.799 nM in assay [1].

Take `CC(C)C(O)c1cc2ccc(-c3cnc4nn(C)cc4c3)nc2s1` (centres unmarked) [Compound B24, 2-methyl-1-(6-(2-methyl-2H-pyrazolo[3,4-b]pyridin-5-yl)thieno[2,3-b]pyridin-2-yl)propan-1-ol]: the IC50 on 15-PGDH in A549 cells is 0.579 nM; in assay [1], 0.517 nM.

For the compound `Cc1c2cnc(-c3cnc4nn(C)cc4c3)nc2sc1[C@]1(O)C[C@@H](C(F)F)C1` [Compound C90C, cis-3-(difluoromethyl)-1-(5-methyl-2-(2-methyl-2H-pyrazolo[3,4-b]pyridin-5-yl)thieno[2,3-d]pyrimidin-6-yl)cyclobutanol], the values for the IC50 (at 15-PGDH in A549 cells; in assay [1]) were 33 nM and 14.4 nM, respectively.

`Cn1nnc2cc(-c3ccc4cc(C5(O)CC(F)(F)C5)sc4n3)cnc21` [Compound C51, 3,3-difluoro-1-(6-(3-methyl-3H-[1,2,3]triazolo[4,5-b]pyridin-6-yl)thieno[2,3-b]pyridin-2-yl)cyclobutanol]: the IC50 at 15-PGDH in A549 cells came out at 1.1 nM; in assay [1], 2.19 nM.

Regarding `Cn1cc2cc(-c3ccc4cc([C@H](CO)C5CC(F)(F)C5)sc4n3)cnc2n1` (single isomer, unassigned) [Compound B80S], the IC50 stood at 0.339 nM on 15-PGDH in A549 cells and 1.16 nM in assay [1].

As for `Cn1cc2cc(-c3ccc4sc([C@]5(O)C[C@@H](OC(F)(F)F)C5)cc4n3)cnc2n1` [Compound C117C, cis-1-(5-(2-methyl-2H-pyrazolo[3,4-b]pyridin-5-yl)thieno[3,2-b]pyridin-2-yl)-3-(trifluoromethoxy)cyclobutanol], the IC50 at 15-PGDH in A549 cells was determined as 1.46 nM; in assay [1], 0.429 nM.

For the compound `Cc1c([C@H](CO)C2CC(F)(F)C2)sc2nc(-c3cnc4nn(C)cc4c3)ccc12` (single isomer, unassigned) [Compound B93S], the IC50 was 14.2 nM on 15-PGDH in A549 cells and 2.64 nM in assay [1].

Take `CO[C@]1(C)C[C@@](O)(c2cc3ccc(-c4cnc5nn(C)cc5c4)nc3s2)C1` [Compound C59C, cis-3-methoxy-3-methyl-1-(6-(2-methyl-2H-pyrazolo[3,4-b]pyridin-5-yl)thieno[2,3-b]pyridin-2-yl)cyclobutanol]: the IC50 at 15-PGDH in A549 cells is 0.113 nM; in assay [1] it was 0.584 nM.

On to `Cn1cc2cc(-c3ccc4cc([C@]5(O)C[C@@H](C(F)F)C5)sc4n3)cnc2n1` [Compound C30C, cis-3-(difluoromethyl)-1-(6-(2-methyl-2H-pyrazolo[3,4-b]pyridin-5-yl)thieno[2,3-b]pyridin-2-yl)cyclobutanol], for which the IC50 at 15-PGDH in A549 cells is 0.137 nM; in assay [1] it was 0.278 nM.

`Cn1cc2cc(-c3ccc4nc([C@]5(O)C[C@@H](C(F)F)C5)sc4n3)cnc2n1` [Compound C81C, cis-3-(difluoromethyl)-1-(5-(2-methyl-2H-pyrazolo[3,4-b]pyridin-5-yl)[1,3]thiazolo[5,4-b]pyridin-2-yl)cyclobutanol]: the half-inhibitory concentration (IC50) at 15-PGDH in A549 cells came out at 2.69 nM; in assay [1], 0.641 nM.

For the compound `Cn1cc2cc(-c3ccc4sc([C@@H](O)C5CC(F)(F)C5)nc4n3)cnc2n1` (single isomer, unassigned) [Compound B74S], the values for the IC50 (on 15-PGDH in A549 cells; in assay [1]) were 4.48 nM and 24.1 nM, respectively.

`Cn1cc2cc(-c3ccc4cc([C@]5(O)C[C@@H](C(F)(F)F)C5)sc4n3)cnc2n1` [Compound C29C, cis-1-(6-(2-methyl-2H-pyrazolo[3,4-b]pyridin-5-yl)thieno[2,3-b]pyridin-2-yl)-3-(trifluoromethyl)cyclobutanol]: the figures for the half-inhibitory concentration (IC50) (at 15-PGDH in A549 cells; in assay [1]) were 0.0513 nM and 0.3 nM, respectively.

Regarding `CCn1cc2cc(-c3ccc4cc([C@H](O)C5CC(F)(F)C5)sc4n3)cnc2n1` (single isomer, unassigned) [Compound B53R], the IC50 on 15-PGDH in A549 cells turned out to be 0.354 nM; in assay [1], 0.222 nM.

As for `CO[C@]1(C(F)(F)F)C[C@](O)(c2cc3cnc(-c4cnc5nn(C)cc5c4)nc3s2)C1` (single isomer, unassigned) [Compound C113T, trans-3-methoxy-1-(2-(2-methyl-2H-pyrazolo[3,4-b]pyridin-5-yl)thieno[2,3-d]pyrimidin-6-yl)-3-(trifluoromethyl)cyclobutanol], the figures for the IC50 (at 15-PGDH in A549 cells; in assay [1]) were 1.11 nM and 0.426 nM, respectively.

For the compound `O[C@@H](c1cc2ccc(-c3cncnc3)nc2s1)C1CC(F)(F)C1` (single isomer, unassigned) [Compound B57R], the figures for the IC50 (on 15-PGDH in A549 cells; in assay [1]) were 0.657 nM and 0.32 nM, respectively.

As to `CO[C@@H]1CC[C@@]1(O)c1cc2ccc(-c3cnc4nn(C)cc4c3)nc2s1` (single isomer, unassigned) [Compound C70SR], the values for the IC50 (on 15-PGDH in A549 cells; in assay [1]) were 172 nM and 2260 nM, respectively.

As to `Cn1cc2cc(-c3ccc4cc([C@H](O)C5CC(F)(F)C5)ccc4n3)cnc2n1` (single isomer, unassigned) [Compound D7R], the IC50 on 15-PGDH in A549 cells came out at 61.8 nM; in assay [1] it was 24.7 nM.

With `Cn1cc2cc(-c3ccc4cc([C@H](O)C5CCCC5)sc4c3)cnc2n1` (single isomer, unassigned) [Compound B58R], the results for the IC50 (on 15-PGDH in A549 cells; in assay [1]) were 1.41 nM and 0.24 nM, respectively.

For the compound `Cc1cn2ncc(-c3ccc4cc([C@]5(O)C[C@@H](C(F)F)C5)sc4n3)cc2n1` [Compound C92C, cis-3-(difluoromethyl)-1-(6-(2-methylimidazo[1,2-b]pyridazin-7-yl)thieno[2,3-b]pyridin-2-yl)cyclobutanol], the IC50 at 15-PGDH in A549 cells was 5.27 nM; in assay [1], 1.46 nM.

Consider `Cn1ccc2cc(-c3ccc4cc([C@@H](O)C5CC(F)(F)C5)sc4n3)ccc2c1=O` (single isomer, unassigned) [Compound B50S], for which the IC50 was found to be 7.99 nM on 15-PGDH in A549 cells and 1.86 nM in assay [1].

Turning to `COCC(O)c1cc2ccc(-c3cnc4nn(C)cc4c3)nc2s1` (centres unmarked) [Compound B32, 2-methoxy-1-(6-(2-methyl-2H-pyrazolo[3,4-b]pyridin-5-yl)thieno[2,3-b]pyridin-2-yl)ethanol], the IC50 at 15-PGDH in A549 cells came out at 7.49 nM; in assay [1], 1.18 nM.

Take `Cn1cc2cc(-c3ccc4sc([C@H](O)C5CC(F)(F)C5)cc4n3)cnc2n1` (single isomer, unassigned) [Compound B73R]: the IC50 on 15-PGDH in A549 cells was determined as 0.061 nM; in assay [1] it was 0.412 nM.

For `CCn1cc2cc(-c3ccc4cc([C@]5(O)C[C@@H](C(F)F)C5)sc4n3)cnc2n1` [Compound C87C, cis-3-(difluoromethyl)-1-(6-(2-ethyl-2H-pyrazolo[3,4-b]pyridin-5-yl)thieno[2,3-b]pyridin-2-yl)cyclobutanol], the figures for the IC50 (at 15-PGDH in A549 cells; in assay [1]) were 0.842 nM and 0.61 nM, respectively.

On to `Cn1cc2cc(-c3ccc4sc([C@]5(O)C[C@@H](C(F)F)C5)cc4n3)cnc2n1` [Compound C84C, cis-3-(difluoromethyl)-1-(5-(2-methyl-2H-pyrazolo[3,4-b]pyridin-5-y1)thieno[3,2-b]pyridin-2-yl)cyclobutanol], for which the IC50 on 15-PGDH in A549 cells came to 13.2 nM; in assay [1] it was 7.79 nM.

For the compound `CCC[C@@H](O)c1cc2ccc(-c3cnc4nn(C)cc4c3)cc2s1` (single isomer, unassigned) [Compound B54R], the half-inhibitory concentration (IC50) at 15-PGDH in A549 cells turned out to be 11.8 nM; in assay [1] it was 4.11 nM.

As to `Cn1cc2cc(-c3ccc4cc([C@]5(O)C[C@]6(CC6(F)F)C5)sc4n3)cnc2n1` (single isomer, unassigned) [Compound C88C, cis-1,1-difluoro-5-(6-(2-methyl-2H-pyrazolo[3,4-b]pyridin-5-yl)thieno[2,3-b]pyridin-2-yl)spiro[2.3]hexan-5-ol], the IC50 on 15-PGDH in A549 cells is 0.455 nM; in assay [1], 0.503 nM.

Regarding `OC1(c2cc3ccc(-c4cnc5[nH]ncc5c4)nc3s2)CC(F)(F)C1` [Compound C36, 3,3-difluoro-1-(6-(1H-pyrazolo[3,4-b]pyridin-5-yl)thieno[2,3-b]pyridin-2-yl)cyclobutanol], the IC50 at 15-PGDH in A549 cells came out at 0.348 nM; in assay [1] it was 0.756 nM.

Take `CCn1cc2cc(-c3ccc4cc([C@@H](O)C5CC(F)(F)C5)sc4n3)cnc2n1` (single isomer, unassigned) [Compound B53S]: the IC50 is 0.288 nM at 15-PGDH in A549 cells and 0.436 nM in assay [1].
